Drawing on ChEMBL document CHEMBL5512645, “A novel antimicrobial peptide with broad-spectrum and exceptional stability derived from the natural peptide Brevicidine” (Eur J Med Chem, 2024), this text covers MIC and MHC for nine compounds.

Converted amounts (≈) assume the structure as drawn. Bridge positions count the residues as written; N and C are the ends. Square brackets hold non-standard residues; d marks the D form. Peptide text beside a SMILES is read from it. * marks the point of attachment. Lauroyl = CCCCCCCCCCCC(=O)*; Decanoyl = CCCCCCCCCC(=O)*; dOrn = NCCC[C@@H](N)C(=O)O; Octanoyl = CCCCCCCC(=O)*; Orn = NCCC[C@H](N)C(=O)O

Data set [1] deals with Klebsiella pneumoniae. The experiment in a line: Antibacterial activity against Klebsiella pneumoniae ATCC 700603 incubated for 18 to 24 hrs by broth microdilution method. In kind it is functional. The following applies: time 18-24 hrs.
Data set [2] concerns Staphylococcus aureus. The experiment in a line: Antibacterial activity against Staphylococcus aureus ATCC 25923 incubated for 18 to 24 hrs by broth microdilution method. The following applies: time 18-24 hrs. It is filed as functional. (In general: Dilution methods test growth across graded concentrations, often in twofold steps.)
Data set [3] has as its system Enterococcus faecalis. The experiment in a line: Antibacterial activity against Enterococcus faecalis ATCC 29212 incubated for 18 to 24 hrs by broth microdilution method. In kind it is functional. Particulars: time 18-24 hrs.
In data set [4] the test system is Pseudomonas aeruginosa. Put plainly: Antibacterial activity against Pseudomonas aeruginosa ATCC 27853 incubated for 18 to 24 hrs by broth microdilution method. In kind it is functional. Particulars: time 18-24 hrs.
Data set [5] deals with Erythrocyte. Put plainly: Hemolytic activity in mouse red blood cell assessed as hemolysis incubated for 1 hr. It is filed as toxicity, cell-based.
Data set [6] deals with Bacillus subtilis. The experiment in a line: Antibacterial activity against Bacillus subtilis ATCC 23857 incubated for 18 to 24 hrs by broth microdilution method. In kind it is functional. Particulars: time 18-24 hrs.
Data set [7] relates to Acinetobacter baumannii. Put plainly: Antibacterial activity against Acinetobacter baumannii ATCC 19606 incubated for 18 to 24 hrs by broth microdilution method. In kind it is functional. The following applies: time 18-24 hrs.
Data set [8] concerns Staphylococcus epidermidis. The experiment in a line: Antibacterial activity against Staphylococcus epidermidis ATCC 12228 incubated for 18 to 24 hrs by broth microdilution method. It is filed as functional. The following applies: time 18-24 hrs.
Data set [9] has as its system Escherichia coli. Put plainly: Antibacterial activity against Escherichia coli ATCC 25922 incubated for 18 to 24 hrs by broth microdilution method. In kind it is functional. The following applies: time 18-24 hrs.

By MIC is commonly meant the lowest concentration that inhibits growth of the organism. Higher therefore signals a less susceptible organism. Regarding `CCC(C)CCC(=O)N[C@H](CC(N)=O)C(=O)N[C@H](Cc1ccc(O)cc1)C(=O)N[C@H](Cc1c[nH]c2ccccc12)C(=O)N[C@H](CCCCN)C(=O)N[C@@H](CCCCN)C(=O)NCC(=O)N[C@H](CCCCN)C(=O)N[C@@H](Cc1c[nH]c2ccccc12)C(=O)N[C@@H]1C(=O)N[C@@H]([C@@H](C)CC)C(=O)NCC(=O)N[C@@H](CO)C(=O)O[C@@H]1C` (stereo partly specified), the MIC in data set [1] was determined as 8 µM (≈ 12.5 µg/mL); in [2], 64 µM (≈ 100 µg/mL); in data set [3] it was 64 µM (≈ 100 µg/mL); in [4], 4 µM (≈ 6.25 µg/mL); in data set [6], 32 µM (≈ 50 µg/mL); in data set [7], 8 µM (≈ 12.5 µg/mL). In addition, the MIC came out at 32 µM (≈ 50 µg/mL) in data set [8] and 4 µM (≈ 6.25 µg/mL) in data set [9]. In addition, in data set [5], the MHC was determined as 128 µM.
As to `CCC(C)CCC(=O)N[C@H](CC(N)=O)C(=O)N[C@H](Cc1ccc(O)cc1)C(=O)N[C@H](Cc1c[nH]c2ccccc12)C(=O)N[C@H](CCN)C(=O)N[C@@H](CCN)C(=O)NCC(=O)N[C@H](CCN)C(=O)N[C@@H](Cc1c[nH]c2ccccc12)C(=O)N[C@@H]1C(=O)N[C@@H]([C@@H](C)CC)C(=O)NCC(=O)N[C@@H](CO)C(=O)O[C@@H]1C` (stereo partly specified), the MIC stood at 8 µM (≈ 11.8 µg/mL) in data set [1]; 64 µM (≈ 94.6 µg/mL) in data set [2]; 64 µM (≈ 94.6 µg/mL) in [3]; 4 µM (≈ 5.91 µg/mL) in [4]; 16 µM (≈ 23.6 µg/mL) in data set [6]; 32 µM (≈ 47.3 µg/mL) in data set [7]. The MIC stood at 8 µM (≈ 11.8 µg/mL) in [8] and 4 µM (≈ 5.91 µg/mL) in [9]. In addition, the MHC in data set [5] stood at 128 µM.
Consider `CCCCCCCCCC(=O)N[C@H](CCCN)C(=O)N[C@H](Cc1ccc(O)cc1)C(=O)N[C@H](Cc1c[nH]c2ccccc12)C(=O)N[C@H](CCCN)C(=O)N[C@@H](CCCN)C(=O)NCC(=O)N[C@H](CCCN)C(=O)N[C@@H](Cc1c[nH]c2ccccc12)C(=O)N[C@@H]1C(=O)N[C@@H]([C@@H](C)CC)C(=O)NCC(=O)N[C@@H](CO)C(=O)O[C@@H]1C`, for which the MIC in data set [1] worked out at 16 µM (≈ 25 µg/mL); in data set [2], 32 µM (≈ 50 µg/mL); in data set [3] it was 64 µM (≈ 100 µg/mL); in data set [4] it was 8 µM (≈ 12.5 µg/mL); in data set [6] it was 16 µM (≈ 25 µg/mL); in [7], 16 µM (≈ 25 µg/mL). In addition, the values for the MIC in [8] and in data set [9] were 16 µM (≈ 25 µg/mL) and 8 µM (≈ 12.5 µg/mL), respectively. In data set [5], the MHC was found to be 128 µM.
`CCC(C)CCC(=O)N[C@H](CCCN)C(=O)N[C@H](Cc1ccc(O)cc1)C(=O)N[C@H](Cc1c[nH]c2ccccc12)C(=O)N[C@H](CCCN)C(=O)N[C@@H](CCCN)C(=O)N[C@@H](CCCN)C(=O)N[C@H](CCCN)C(=O)N[C@@H](Cc1c[nH]c2ccccc12)C(=O)N[C@@H]1C(=O)N[C@@H]([C@@H](C)CC)C(=O)NCC(=O)N[C@@H](CO)C(=O)O[C@@H]1C` (stereo partly specified): the MIC in [1] was 2 µM (≈ 3.15 µg/mL); in data set [2], 32 µM (≈ 50.5 µg/mL); in data set [3], more than 128 µM; in data set [4], 1 µM (≈ 1.58 µg/mL); in data set [6] it was 4 µM (≈ 6.31 µg/mL); in data set [7], 16 µM (≈ 25.2 µg/mL). Besides, the MIC in [8] came out at 16 µM (≈ 25.2 µg/mL); in data set [9], 8 µM (≈ 12.6 µg/mL). The MHC in data set [5] came to 128 µM.
As for `CCCCCCCCCC(=O)N[C@H](CC(N)=O)C(=O)N[C@H](Cc1ccc(O)cc1)C(=O)N[C@H](Cc1c[nH]c2ccccc12)C(=O)N[C@H](CCCN)C(=O)N[C@@H](CCCN)C(=O)NCC(=O)N[C@H](CCCN)C(=O)N[C@@H](Cc1c[nH]c2ccccc12)C(=O)N[C@@H]1C(=O)N[C@@H]([C@@H](C)CC)C(=O)NCC(=O)N[C@@H](CO)C(=O)O[C@@H]1C` (Decanoyl-[dN][dY][dW][dOrn][Orn]G[dOrn]WTIGS; ester 9-C), the MIC was found to be 2 µM (≈ 3.12 µg/mL) in [1]; 16 µM (≈ 25 µg/mL) in data set [2]; 32 µM (≈ 50 µg/mL) in data set [3]; 2 µM (≈ 3.12 µg/mL) in data set [4]; 4 µM (≈ 6.25 µg/mL) in [6]; 2 µM (≈ 3.12 µg/mL) in data set [7]. Further, the minimum inhibitory concentration (MIC) in data set [8] turned out to be 4 µM (≈ 6.25 µg/mL); in data set [9] it was 2 µM (≈ 3.12 µg/mL). In [5], the MHC stood at 8 µM.
`CCCCCCCCCCCC(=O)N[C@H](CC(N)=O)C(=O)N[C@H](Cc1ccc(O)cc1)C(=O)N[C@H](Cc1c[nH]c2ccccc12)C(=O)N[C@H](CCCN)C(=O)N[C@@H](CCCN)C(=O)NCC(=O)N[C@H](CCCN)C(=O)N[C@@H](Cc1c[nH]c2ccccc12)C(=O)N[C@@H]1C(=O)N[C@@H]([C@@H](C)CC)C(=O)NCC(=O)N[C@@H](CO)C(=O)O[C@@H]1C` (Lauroyl-[dN][dY][dW][dOrn][Orn]G[dOrn]WTIGS; ester 9-C): the MIC in data set [1] turned out to be 8 µM (≈ 12.7 µg/mL); in data set [2] it was 16 µM (≈ 25.4 µg/mL); in data set [3] it was 16 µM (≈ 25.4 µg/mL); in data set [4], 2 µM (≈ 3.18 µg/mL); in data set [6], 4 µM (≈ 6.36 µg/mL); in data set [7], 4 µM (≈ 6.36 µg/mL). The values for the MIC in data set [8] and in data set [9] were 4 µM (≈ 6.36 µg/mL) and 8 µM (≈ 12.7 µg/mL), respectively. In [5], the MHC was 4 µM.
On to `CCCCCCCC(=O)N[C@H](CC(N)=O)C(=O)N[C@H](Cc1ccc(O)cc1)C(=O)N[C@H](Cc1c[nH]c2ccccc12)C(=O)N[C@H](CCCN)C(=O)N[C@@H](CCCN)C(=O)NCC(=O)N[C@H](CCCN)C(=O)N[C@@H](Cc1c[nH]c2ccccc12)C(=O)N[C@@H]1C(=O)N[C@@H]([C@@H](C)CC)C(=O)NCC(=O)N[C@@H](CO)C(=O)O[C@@H]1C` (Octanoyl-[dN][dY][dW][dOrn][Orn]G[dOrn]WTIGS; ester 9-C), for which the MIC in data set [1] amounted to 4 µM (≈ 6.14 µg/mL); in [2], 32 µM (≈ 49.1 µg/mL); in data set [3] it was 64 µM (≈ 98.2 µg/mL); in data set [4] it was 2 µM (≈ 3.07 µg/mL); in [6], 8 µM (≈ 12.3 µg/mL); in data set [7], 4 µM (≈ 6.14 µg/mL). Also, the MIC in data set [8] turned out to be 16 µM (≈ 24.5 µg/mL); in data set [9], 2 µM (≈ 3.07 µg/mL). Also, the MHC in [5] was 64 µM.
With `CCC(C)CCC(=O)N[C@H](CC(N)=O)C(=O)N[C@H](C)C(=O)N[C@H](Cc1c[nH]c2ccccc12)C(=O)N[C@H](CCCN)C(=O)N[C@@H](CCCN)C(=O)NCC(=O)N[C@H](CCCN)C(=O)N[C@@H](Cc1c[nH]c2ccccc12)C(=O)N[C@@H]1C(=O)N[C@@H]([C@@H](C)CC)C(=O)NCC(=O)N[C@@H](CO)C(=O)O[C@@H]1C` (mixture of isomers), the MIC is 32 µM in data set [1]; more than 128 µM in [2]; more than 128 µM in data set [3]; 2 µM in data set [4]; 16 µM in data set [6]; 32 µM in [7]. For the same compound, the MIC came to 8 µM in data set [8] and 16 µM in [9]. Besides, in [5], the MHC was determined as 128 µM.
In the case of `CCC(C)CCC(=O)N[C@H](CC(N)=O)C(=O)N[C@H](Cc1ccc(N)cc1)C(=O)N[C@H](Cc1c[nH]c2ccccc12)C(=O)N[C@H](CCCN)C(=O)N[C@@H](CCCN)C(=O)NCC(=O)N[C@H](CCCN)C(=O)N[C@@H](Cc1c[nH]c2ccccc12)C(=O)N[C@@H]1C(=O)N[C@@H]([C@@H](C)CC)C(=O)NCC(=O)N[C@@H](CO)C(=O)O[C@@H]1C` (mixture of isomers), the MIC in [1] is 16 µM; in data set [2] it was 128 µM; in [3], more than 128 µM; in data set [4] it was 4 µM; in [6], 16 µM; in [7], 32 µM. Besides, the MIC in data set [8] worked out at 64 µM; in data set [9], 8 µM. Moreover, the MHC in [5] turned out to be 128 µM.
